Data published in the supplement of paper PMC10307832.

Assays:
Test in all cases: relative viability (nuclei count vs DMSO), 5 days (fraction); higher = more cells survive
Nelarabine + AZD7762 = compound: COc1nc(N)nc2c1ncn2[C@@H]1O[C@H](CO)[C@@H](O)[C@@H]1O [Nelarabine] + NC(=O)Nc1cc(-c2cccc(F)c2)sc1C(=O)N[C@H]1CCCNC1 [AZD7762] (partner 0.2 µM)
Procedure, shortened: (§1)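 A single step with final 0.05% Triton X-100, 1% formaldehyde and 1 ug/ml Hoechst fixed the cells and stained nuclei 5 days after treatment. Lung cancer cell lines in 1536-well plates had been treated by pin tool the day after seeding with one drug alone or a fixed anchor-drug dose plus five library-drug doses (not always all listed) in √10 steps, and nuclei were counted on 4× images. Relative viability is the ratio of nuclei in treated wells to nuclei in vehicle wells, taken as the median of duplicate plates.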

Nelarabine + Phenformin = compound: COc1nc(N)nc2c1ncn2[C@@H]1O[C@H](CO)[C@@H](O)[C@@H]1O [Nelarabine] + N=C(N)NC(=N)NCCc1ccccc1 [Phenformin] (partner 250 µM)
Procedure, shortened: as §1

Adavosertib + Bortezomib = compound: C=CCn1c(=O)c2cnc(Nc3ccc(N4CCN(C)CC4)cc3)nc2n1-c1cccc(C(C)(C)O)n1 [Adavosertib] + CC(C)C[C@H](NC(=O)[C@H](Cc1ccccc1)NC(=O)c1cnccn1)B(O)O [Bortezomib] (partner 0.002 µM)
Procedure, shortened: as §1

Adavosertib + Vorinostat = compound: C=CCn1c(=O)c2cnc(Nc3ccc(N4CCN(C)CC4)cc3)nc2n1-c1cccc(C(C)(C)O)n1 [Adavosertib] + O=C(CCCCCCC(=O)Nc1ccccc1)NO [Vorinostat] (partner 1 µM)
Procedure, shortened: as §1

Row | Cell Line | relative viability (Nelarabine + AZD7762; first compound 0.01 µM) | relative viability (Nelarabine + AZD7762; first compound 0.03162 µM) | relative viability (Nelarabine + AZD7762; first compound 0.1 µM) | relative viability (Nelarabine + AZD7762; first compound 0.3162 µM) | relative viability (Nelarabine + AZD7762; first compound 1 µM) | relative viability (Nelarabine + Phenformin; first compound 0.01 µM) | relative viability (Nelarabine + Phenformin; first compound 0.03162 µM) | relative viability (Nelarabine + Phenformin; first compound 0.1 µM) | relative viability (Nelarabine + Phenformin; first compound 0.3162 µM) | relative viability (Nelarabine + Phenformin; first compound 1 µM) | relative viability (Adavosertib + Bortezomib; first compound 0.01 µM) | relative viability (Adavosertib + Bortezomib; first compound 0.03162 µM) | relative viability (Adavosertib + Bortezomib; first compound 0.1 µM) | relative viability (Adavosertib + Bortezomib; first compound 0.3162 µM) | relative viability (Adavosertib + Vorinostat; first compound 0.01 µM) | relative viability (Adavosertib + Vorinostat; first compound 0.03162 µM) | relative viability (Adavosertib + Vorinostat; first compound 0.1 µM) | relative viability (Adavosertib + Vorinostat; first compound 0.3162 µM)
1 | NCI-H1666 | 0.844 | 0.877 | 0.819 | 0.84 | 0.795 | 0.576 | 0.607 | 0.569 | 0.536 | 0.606 | 0.831 | 0.87 | 0.729 | 0.62 | 1.06 | 0.865 | 0.935 | 1.01
2 | LC-2-ad | 1.01 | 0.96 | 0.859 | 0.908 | 0.856 | 0.618 | 0.613 | 0.637 | 0.54 | 0.536 | 1.11 | 1.08 | 1.09 | 1.16 | 0.708 | 0.661 | 0.736 | 0.704
3 | PC-3 [JPC-3] | 0.9 | 0.764 | 0.761 | 0.957 | 0.792 | 0.475 | 0.437 | 0.473 | 0.472 | 0.459 | 0.808 | 0.812 | 0.853 | 0.793 |  | 0.756 | 0.621 | 0.753
4 | A-427 | 0.781 | 0.62 | 0.599 | 0.62 | 0.572 | 0.315 | 0.22 | 0.306 | 0.289 | 0.236 | 0.906 | 1.04 | 0.964 | 0.861 | 0.872 | 0.865 | 0.831 | 0.705
5 | NCI-H1651 | 0.495 | 0.53 | 0.452 | 0.518 | 0.422 | 0.362 | 0.329 | 0.46 | 0.353 | 0.355 | 0.902 | 0.963 | 1 | 0.935 | 0.524 | 0.626 | 0.567 | 0.538
6 | BEN | 0.746 | 0.683 | 0.711 | 0.683 | 0.674 | 0.264 | 0.269 | 0.276 | 0.221 | 0.273 | 0.807 | 0.986 | 0.811 | 0.851 | 0.628 | 0.553 | 0.669 | 0.592
7 | NCI-H1915 | 0.747 | 0.728 | 0.687 | 0.704 | 0.733 | 0.378 | 0.315 | 0.367 | 0.371 | 0.367 | 0.93 | 0.967 | 0.987 | 0.972 | 0.552 | 0.521 | 0.53 | 0.373
8 | NCI-H1975 | 0.964 | 0.799 | 0.778 | 0.701 | 0.766 | 0.472 | 0.389 | 0.4 | 0.399 | 0.432 | 0.356 | 0.353 | 0.399 | 0.324 | 0.973 | 0.676 | 0.676 | 0.571
